Test results from article PMC12692722, “The Tetrapeptide HAEE Promotes Amyloid-Beta Clearance from the Brain” (International Journal of Molecular Sciences, 2025).
Residues, ends and D or L forms follow the SMILES beside them.

What was measured:
[1] = system: HMC3 cells; assay: Aβ degradation assay in HMC3 cells with exocytosis inhibitor GW4869; assay type: cell-based, human; settings: Aβ 1 µM 1 h, wash, then 3 h with 10 µM GW4869 ± 30 µM HAEE, ELISA, n = 3
Procedure: HMC3 cells were treated with 1 µM Aβ in serum-free culture medium for 1 h to allow for peptide internalization. Cells were then washed to remove extracellular Aβ. […] Aβ released into the cell culture medium during the degradation phase was also quantified by ELISA.

[2] = system: HMC3 cells; assay: Lysosomal staining of HMC3 cells with LysoTracker Red DND-99; assay type: cell-based, human; settings: Aβ 1 μM + HAEE 30 μM, 24 h, 10 cells per field, n = 3
Procedure: Two hours prior to the completion of the incubation period, LysoTracker Red DND-99 (Thermo Fisher Scientific, Waltham, MA, USA) was added to the culture medium at a final concentration of 50 nM to label acidic compartments, including active lysosomes. Immediately before live-cell imaging, cell nuclei were counterstained with NucBlue Live Cell Stain (Thermo Fisher Scientific, Waltham, MA, USA) according to the manufacturer’s instructions. Fluorescent images were acquired using a Nikon Eclipse Ni-U (Nikon Corp., Tokyo, Japan) microscope with appropriate filter sets.

[3] = molecular target: T1, Aβ (Homo sapiens, UniProt P05067); assay: Aβ level in mouse brain tissue after i.c.v. oligomeric Aβ and HAEE (ELISA); assay type: in vivo; settings: C57BL/6 mice, HAEE 100 µM 1 μL i.c.v. days 1-3, n = 8
T1 construct: purchased Peptide Specialty Laboratories GmbH; host or cells: synthetic peptide
T1 sequence (P05067 672-713): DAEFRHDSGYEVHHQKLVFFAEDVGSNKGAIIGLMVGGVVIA
Procedure: (§1) After a recovery period, mice were randomly divided into two experimental groups using online GraphPad random number generator (Figure 1A, n = 8 per group): 1. The Aβ group received oligomeric Aβ and vehicle solution (ACSF). 2. The Aβ + HAEE group received oligomeric Aβ and the synthetic tetrapeptide HAEE (100 µM). The group allocation was unknown to the researchers who performed the neurosurgical procedures and ELISA.
(§2) On day 1, all mice received an intracerebroventricular (i.c.v.) injection of oligomeric Aβ (1 μL). Immediately after, mice received the first i.c.v. injection of either HAEE (1 μL) or ACSF (1 μL). Injections were repeated on days 2 and 3 (HAEE or ACSF only). All injections were performed on awake, freely moving mice through the guide cannula at a rate of 1 μL/min. […]
(§3) Aβ levels in the brain and cell lysates were measured by sandwich ELISA using BAM113cc capture antibodies (50 ng/well, HyTest, Moscow, Russia) and peroxidase-labeled BAM7cc antibodies (100 ng/well, HyTest, Moscow, Russia) as described in [46]. Aβ level was normalized to the protein concentration in the samples, measured using a Pierce™ BCA Protein Assay Kit (Thermo Fisher Scientific, Waltham, MA, USA). The rate of Aβ degradation was calculated as the difference in normalized Aβ level in the cells between the 48-hour and 24-hour time points divided by 24 h. […]

[4] = system: HMC3 cells; assay: IL-6 level in HMC3 supernatant (ELISA); assay type: cell-based, human; settings: Aβ 1 µM + HAEE 30 µM, 24 h, n = 3
Description: Subsequently, cells were frozen in liquid nitrogen.

[5] = molecular target: T2, LRP1 (Mus musculus, UniProt Q91ZX7); assay: Inhibitory assay: blocking antibody to LRP1, Aβ level in bEnd.3 cells; assay type: cell-based; settings: blocking antibody 10 μg/mL 1 h, Aβ 100 nM + HAEE 20 μM, 2 h, ELISA, n = 3–4
T2 construct: endogenous in cells; host or cells: bEnd.3
T2 sequence (Q91ZX7 20-4545): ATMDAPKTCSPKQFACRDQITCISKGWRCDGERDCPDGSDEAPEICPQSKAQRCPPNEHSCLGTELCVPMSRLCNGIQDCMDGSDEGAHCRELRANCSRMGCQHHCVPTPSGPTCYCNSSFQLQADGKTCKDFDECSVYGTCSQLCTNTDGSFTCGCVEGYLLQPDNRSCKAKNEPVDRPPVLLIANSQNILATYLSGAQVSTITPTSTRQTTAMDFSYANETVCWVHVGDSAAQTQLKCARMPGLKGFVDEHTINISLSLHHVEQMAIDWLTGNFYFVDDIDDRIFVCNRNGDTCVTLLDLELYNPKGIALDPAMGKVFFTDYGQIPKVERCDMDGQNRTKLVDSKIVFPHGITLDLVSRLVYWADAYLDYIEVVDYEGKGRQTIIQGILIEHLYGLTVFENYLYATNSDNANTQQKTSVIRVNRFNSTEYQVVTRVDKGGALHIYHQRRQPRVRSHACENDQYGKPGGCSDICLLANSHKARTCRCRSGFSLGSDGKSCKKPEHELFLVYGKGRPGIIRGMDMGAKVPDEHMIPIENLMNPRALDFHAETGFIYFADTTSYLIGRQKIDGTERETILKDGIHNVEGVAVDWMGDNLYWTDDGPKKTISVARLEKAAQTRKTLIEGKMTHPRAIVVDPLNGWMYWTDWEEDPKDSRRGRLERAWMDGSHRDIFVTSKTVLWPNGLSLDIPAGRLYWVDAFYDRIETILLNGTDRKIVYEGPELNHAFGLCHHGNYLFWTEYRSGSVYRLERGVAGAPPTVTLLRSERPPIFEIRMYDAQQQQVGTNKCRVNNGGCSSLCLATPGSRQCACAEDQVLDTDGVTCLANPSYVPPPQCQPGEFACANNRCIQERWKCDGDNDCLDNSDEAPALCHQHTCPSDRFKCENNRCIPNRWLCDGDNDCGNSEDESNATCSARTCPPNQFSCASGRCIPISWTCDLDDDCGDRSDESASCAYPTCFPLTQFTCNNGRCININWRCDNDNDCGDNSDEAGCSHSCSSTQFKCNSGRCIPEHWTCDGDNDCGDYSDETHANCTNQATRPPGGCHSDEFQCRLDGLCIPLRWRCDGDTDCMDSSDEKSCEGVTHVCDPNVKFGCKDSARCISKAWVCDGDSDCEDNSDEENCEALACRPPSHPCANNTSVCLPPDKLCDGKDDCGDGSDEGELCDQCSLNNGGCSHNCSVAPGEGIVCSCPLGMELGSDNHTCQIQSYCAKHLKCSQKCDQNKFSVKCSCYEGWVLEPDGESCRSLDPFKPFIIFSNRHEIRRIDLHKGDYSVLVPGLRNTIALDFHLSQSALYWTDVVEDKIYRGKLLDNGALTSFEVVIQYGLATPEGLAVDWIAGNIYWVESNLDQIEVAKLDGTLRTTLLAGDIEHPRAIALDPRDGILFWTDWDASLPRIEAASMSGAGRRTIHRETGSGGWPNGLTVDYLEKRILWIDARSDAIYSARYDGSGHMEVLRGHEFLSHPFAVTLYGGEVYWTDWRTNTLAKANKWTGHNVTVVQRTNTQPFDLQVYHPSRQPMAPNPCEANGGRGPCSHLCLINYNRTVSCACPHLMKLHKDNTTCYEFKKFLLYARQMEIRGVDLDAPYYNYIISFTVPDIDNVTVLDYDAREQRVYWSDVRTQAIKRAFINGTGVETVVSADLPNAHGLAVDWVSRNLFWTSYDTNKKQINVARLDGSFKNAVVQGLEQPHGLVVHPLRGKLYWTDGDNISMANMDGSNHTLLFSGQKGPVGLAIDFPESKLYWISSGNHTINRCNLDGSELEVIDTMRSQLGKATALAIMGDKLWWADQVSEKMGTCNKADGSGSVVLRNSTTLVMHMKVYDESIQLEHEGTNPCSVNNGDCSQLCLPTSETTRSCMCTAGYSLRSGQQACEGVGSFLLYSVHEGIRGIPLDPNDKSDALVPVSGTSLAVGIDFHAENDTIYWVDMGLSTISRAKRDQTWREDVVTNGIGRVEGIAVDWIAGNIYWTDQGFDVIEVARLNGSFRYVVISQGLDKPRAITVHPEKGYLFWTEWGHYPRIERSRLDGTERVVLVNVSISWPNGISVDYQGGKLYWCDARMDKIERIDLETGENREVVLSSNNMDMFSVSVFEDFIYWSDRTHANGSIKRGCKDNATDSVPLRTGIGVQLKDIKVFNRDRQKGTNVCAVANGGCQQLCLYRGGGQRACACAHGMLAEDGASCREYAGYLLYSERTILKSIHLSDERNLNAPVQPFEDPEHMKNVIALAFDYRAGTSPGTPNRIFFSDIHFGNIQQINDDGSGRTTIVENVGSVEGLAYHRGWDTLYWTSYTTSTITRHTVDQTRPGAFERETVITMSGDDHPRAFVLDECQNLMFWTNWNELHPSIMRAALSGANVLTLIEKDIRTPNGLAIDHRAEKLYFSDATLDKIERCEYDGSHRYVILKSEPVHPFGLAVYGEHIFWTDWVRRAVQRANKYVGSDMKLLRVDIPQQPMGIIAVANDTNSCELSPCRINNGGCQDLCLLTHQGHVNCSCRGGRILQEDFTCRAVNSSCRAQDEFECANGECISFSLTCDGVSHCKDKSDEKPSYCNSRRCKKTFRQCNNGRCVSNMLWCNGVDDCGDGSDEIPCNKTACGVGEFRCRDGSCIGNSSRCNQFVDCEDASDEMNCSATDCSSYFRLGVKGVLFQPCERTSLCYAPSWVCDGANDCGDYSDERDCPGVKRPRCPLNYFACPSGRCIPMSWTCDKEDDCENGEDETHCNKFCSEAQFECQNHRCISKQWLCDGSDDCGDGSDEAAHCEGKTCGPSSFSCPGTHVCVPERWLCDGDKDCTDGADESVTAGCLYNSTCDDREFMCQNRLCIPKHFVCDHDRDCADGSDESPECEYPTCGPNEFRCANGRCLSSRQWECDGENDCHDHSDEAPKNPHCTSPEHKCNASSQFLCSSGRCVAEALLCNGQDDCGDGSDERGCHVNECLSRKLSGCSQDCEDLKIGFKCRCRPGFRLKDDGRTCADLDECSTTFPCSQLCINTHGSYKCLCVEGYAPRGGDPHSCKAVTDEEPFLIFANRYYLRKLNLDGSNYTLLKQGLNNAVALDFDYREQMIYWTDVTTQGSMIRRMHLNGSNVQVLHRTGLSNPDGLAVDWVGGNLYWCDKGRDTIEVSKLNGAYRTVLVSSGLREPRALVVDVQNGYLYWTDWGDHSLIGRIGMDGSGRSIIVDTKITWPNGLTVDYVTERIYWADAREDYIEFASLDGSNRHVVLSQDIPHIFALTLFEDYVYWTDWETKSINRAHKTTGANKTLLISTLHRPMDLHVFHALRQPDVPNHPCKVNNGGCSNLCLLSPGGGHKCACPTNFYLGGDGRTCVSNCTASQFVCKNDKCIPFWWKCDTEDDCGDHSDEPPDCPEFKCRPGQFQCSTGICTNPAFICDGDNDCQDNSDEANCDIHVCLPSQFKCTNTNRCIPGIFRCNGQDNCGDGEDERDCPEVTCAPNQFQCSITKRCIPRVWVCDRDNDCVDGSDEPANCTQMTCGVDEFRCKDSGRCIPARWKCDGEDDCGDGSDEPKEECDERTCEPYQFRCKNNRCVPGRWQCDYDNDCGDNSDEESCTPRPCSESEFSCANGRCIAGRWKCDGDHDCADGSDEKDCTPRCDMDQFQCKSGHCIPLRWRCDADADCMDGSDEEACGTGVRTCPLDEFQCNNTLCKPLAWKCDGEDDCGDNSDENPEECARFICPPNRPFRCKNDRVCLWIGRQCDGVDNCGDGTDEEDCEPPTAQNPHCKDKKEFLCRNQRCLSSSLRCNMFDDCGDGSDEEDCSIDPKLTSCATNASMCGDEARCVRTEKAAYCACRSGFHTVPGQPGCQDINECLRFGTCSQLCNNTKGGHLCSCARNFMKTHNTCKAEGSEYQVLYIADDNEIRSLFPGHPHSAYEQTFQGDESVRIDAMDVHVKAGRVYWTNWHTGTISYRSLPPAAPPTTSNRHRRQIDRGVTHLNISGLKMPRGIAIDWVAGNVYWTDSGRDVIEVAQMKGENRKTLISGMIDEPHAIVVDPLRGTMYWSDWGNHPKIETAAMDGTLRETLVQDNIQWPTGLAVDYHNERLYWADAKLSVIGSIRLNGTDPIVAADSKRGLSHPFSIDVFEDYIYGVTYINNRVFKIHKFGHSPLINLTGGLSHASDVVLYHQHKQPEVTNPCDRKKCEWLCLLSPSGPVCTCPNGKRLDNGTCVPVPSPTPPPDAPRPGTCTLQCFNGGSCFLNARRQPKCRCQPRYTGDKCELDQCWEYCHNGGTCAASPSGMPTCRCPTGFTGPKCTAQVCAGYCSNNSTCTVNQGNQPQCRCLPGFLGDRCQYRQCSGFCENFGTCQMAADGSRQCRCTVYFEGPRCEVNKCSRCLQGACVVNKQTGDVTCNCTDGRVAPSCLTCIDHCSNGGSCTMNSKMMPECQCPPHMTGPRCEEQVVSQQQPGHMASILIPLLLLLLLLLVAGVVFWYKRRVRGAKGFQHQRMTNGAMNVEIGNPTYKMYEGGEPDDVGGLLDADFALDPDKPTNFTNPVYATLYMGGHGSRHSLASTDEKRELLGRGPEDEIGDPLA
Procedure: Cells were incubated with blocking antibodies to LRP or Pgp receptors (10 μg/mL, Santa Cruz Biotechnology, Dallas, TX, USA) for 1 h at +37 °C. […] After 2 h, the cells were washed 3 times with PBS, frozen in liquid nitrogen, and lysed in IP lysis buffer (ServiceBio, Wuhan, China) with the addition of a protease inhibitor (Thermo Fisher Scientific, Waltham, MA, USA) for 1 h at +4 °C with stirring. The cell lysate was centrifuged at 16,000× g, +4 °C, 10 min and the supernatant was collected. The amount of total protein in the lysates was determined using a BCA assay kit (Sigma-Aldrich, St. Louis, MO, USA) according to the manufacturer’s protocol.

[6] = system: HMC3 cells; assay: Intracellular ROS and GSH in HMC3 cells by flow cytometry; assay type: cell-based, human; settings: Aβ + HAEE, 24 h
Procedure: The cells were stained with dihydrorhodamine 123 (Ex/Em = 507/525 nm) or monobromobimane (Ex/Em = 395/495 nm) according to ThermoFisher Scientific’s instructions. One minute prior to analysis, 10 μg/mL of propidium iodide (Ex/Em = 535/617 nm, Sigma, St. Louis, MO, USA) was added to the cell samples to evaluate the number of dead cells in the population. The analysis was performed using a BD LSR Fortessa flow cytometer (Becton Dickinson, Franklin Lakes, NJ, USA) and FlowJo^TM Software v.10.8.1 (Becton Dickinson, Franklin Lakes, NJ, USA).

[7] = system: TNFα; assay: TNFα level in mouse brain tissue after i.c.v. oligomeric Aβ and HAEE (ELISA); assay type: in vivo; settings: C57BL/6 mice; i.c.v. oligomeric Aβ day 1; HAEE 100 µM 1 μL i.c.v. days 1-3; ELISA of brain homogenate; n = 8
Procedure: as §1, §2, §3

[8] = system: HMC3 microglial cells; assay: Aβ uptake and clearance in HMC3 microglial cells (ELISA); assay type: cell-based, human; settings: Aβ 1 µM, HAEE 30 µM, n = 6
[9] = system: primary astrocyte culture; assay: Aβ uptake and clearance in primary astrocyte culture (ELISA); assay type: cell-based, C57BL/6 mouse; settings: Aβ 1 µM, HAEE 30 µM, n = 4
[10] = molecular target: T3, Aβ oligomers (Homo sapiens, UniProt P05067); assay: Oligomer-specific ELISA of Aβ; assay type: biochemical; settings: pre-formed Aβ oligomers in the presence vs absence of HAEE; BAM7cc capture and detection
T3 construct: purchased Peptide Specialty Laboratories GmbH; host or cells: synthetic peptide
T3 sequence (P05067 672-713): as the sequence (P05067 672-713) above
Procedure: To measure Aβ oligomers using ELISA, two antibodies (a capture antibody and a detector antibody) targeting the same epitope are used. This method therefore allows for the detection of predominantly oligomeric forms of Aβ, which have epitopes available for binding to both the detection antibody and the capture antibody.
BAM7cc antibodies (HyTest, Moscow, Russia), which recognize the N-terminus of Aβ, were added to a 96-well ELISA plate (Wuxi NEST Biotechnology, Wuxi, China) in a volume of 100 μL (0.5 ng/μL) and incubated overnight at +4 °C. The wells of the plate were washed 3 times with 300 μL of PBST (0.05% Tween20) and blocked in 1% BSA (Diaem, Moscow, Russia) in PBST at room temperature and shaken for 1 h. The plate was then washed three times with 300 μL of PBST, and samples were added at a volume of 100 μL per well. The plates were incubated for 2 h at room temperature with shaking, washed 3 times with 300 μL of PBST, and HRP-conjugated BAM7cc antibodies (HyTest, Moscow, Russia) were added at a volume of 100 μL per well (1 ng/μL). The plates were incubated for 1 hour at room temperature with shaking, washed 5 times with 300 μL of PBST, and analyzed using TMB (Diaem, Moscow, Russia). Absorbance was measured at 450 nm using a Multiskan FC Microplate Photometer (Thermo Fisher Scientific, Waltham, MA, USA).

[11] = system: IL-6; assay: IL-6 level in mouse brain tissue after i.c.v. oligomeric Aβ and HAEE (ELISA); assay type: in vivo; settings: C57BL/6 mice; i.c.v. oligomeric Aβ day 1; HAEE 100 µM 1 μL i.c.v. days 1-3; ELISA of brain homogenate; vs Aβ + ACSF; n = 8
Procedure: IL-6 and TNFα in all samples were assessed using commercial ELISA kits (IL-6 Mouse Uncoated ELISA Kit, Mouse TNF alpha Uncoated ELISA Kit, Thermo Fisher Scientific, Waltham, MA, USA) according to the manufacturer’s instructions.

[12] = molecular target: T3, Aβ oligomers; assay: Dynamic light scattering of Aβ oligomers; assay type: physicochemical; settings: Aβ 50 µM in PBS, 24 h 37 °C, then HAEE 500 µM for additional 24 h 37 °C; measured at 25 °C; triplicate
Procedure: The size distribution of Aβ oligomers was characterized by DLS using a Zetasizer Nano ZS instrument (Malvern Panalytical, Malvern, UK). Oligomeric Aβ was prepared as described in Section 4.6 and further incubated at a concentration of 50 µM in PBS for 24 h at 37 °C to promote oligomerization. To assess the effect of HAEE, the peptide was added to the pre-formed Aβ oligomers at a final concentration of 500 µM (dissolved in PBS), and the mixture was incubated for an additional 24 h at 37 °C. A control sample containing Aβ without HAEE was processed in parallel under identical conditions. Immediately prior to analysis, samples were briefly centrifuged to sediment any large aggregates and transferred to a disposable polystyrene cuvette (Sarstedt, Nümbrecht, Germany). Measurements were performed at 25 °C, and the hydrodynamic diameter (reported as Z-average) and polydispersity index (PDI) were derived from the correlation function using the Zetasizer Software version 7.13 (Malvern Panalytical, Malvern, UK). Each sample was measured in triplicate.

[13] = system: zinc-induced Aβ oligomers; set-up: method as in PMID 32872553, PMID 21081056; settings: binds to Aβ at the 11EVHH14 site; cited from earlier work
[14] = system: mixed primary culture of mouse brain cells; assay: Aβ uptake and clearance in mixed primary culture of brain cells (ELISA); assay type: cell-based, C57BL/6 mouse; settings: Aβ 1 µM, HAEE 30 µM, n = 4
[15] = cited from earlier work
Description: ApoE4 is the primary genetic risk factor for the sporadic form of AD. Unlike other ApoE isoforms, ApoE4 impairs TREM2-dependent microglial phagocytosis, promotes microglial activation, and contributes to chronic neuroinflammation in AD [41, 42].

[16] = system: nicotinic α4β2 acetylcholine receptors; set-up: method as in PMID 34207317; settings: cited from earlier work
[17] = system: bEnd.3 cells; assay: BBB transwell model: Aβ passage through bEnd.3 monolayer; assay type: cell-based, mouse; settings: transwell 0.4 μm, Aβ 100 nM, HAEE 20 μM in abluminal compartment, serum-free DMEM, 37 °C, 24 h, ELISA, n = 5
Procedure: For the experiments, mouse bEnd.3 cells were seeded onto the upper surface of transwell inserts (Greiner Bio-One, Kremsmünster, Austria; pore size 0.4 μm) at a density of 70,000 cells per insert and cultured for 7 days to form a confluent monolayer. The volume of medium in the luminal (upper) compartment was 750 μL and in the abluminal (lower) compartment was 1 mL.
The luminal (upper) compartment contained 700 μL of serum-free DMEM. The plates were incubated at 37 °C and 5% CO2. Samples were collected from the luminal compartment at 24 h. […] To control model BBB integrity, paracellular permeability of the bEnd.3 monolayer was assessed using the fluorescent label sodium fluorescein (Sigma-Aldrich, St. Louis, MO, USA) in each experiment as described in [46].

O=C(/C=C/c1ccc(/C=C/C(=O)Nc2ccc(C3=NCCN3)cc2)cc1)Nc1ccc(C2=NCCN2)cc1 [GW4869, reference compound]
effect of GW4869 on HAEE-dependent Aβ clearance in microglial cells [1]: did not prevent the effect of HAEE

CC(=O)N[C@@H](Cc1c[nH]cn1)C(=O)N[C@@H](C)C(=O)N[C@@H](CCC(=O)O)C(=O)N[C@@H](CCC(=O)O)C(N)=O [HAEE, Acetyl-HAEE-Amide] (Ac-HAEE-NH2)
effect on Aβ-induced changes in lysosomes (size and number) [2]: completely abolished | reduction of Aβ level in mouse brain tissue ([3]; 8-month-old, i.c.v. oligomeric Aβ 1 μL day 1, brain lysate ELISA 30 min after final injection, vs Aβ + ACSF): 35% | Aβ level in the brain of mice treated with HAEE compared to animals that did not receive the tetrapeptide ([3]; i.c.v. oligomeric Aβ day 1, ELISA): reliably reduced | effect on Aβ-induced increase in IL-6 level [4]: effectively inhibited | reduction of Aβ uptake by endothelial cells on blocking LRP1, in the presence of HAEE [5]: 30% | effect on Aβ-induced change in reactive oxygen species (ROS) level ([6]; dihydrorhodamine 123, n = 4): completely prevented | effect on Aβ-induced change in reduced glutathione (GSH) level ([6]; monobromobimane, n = 4): completely prevented | effect on TNFα levels in mouse brain tissue [7]: no effect | rate of Aβ clearance ([8]; 24–48 h period): doubled | amount of intracellular Aβ after 24 h and 48 h of incubation compared to cells not treated with HAEE ([8]; ELISA): significantly reduced | effect on the rate of Aβ clearance ([9]; 24–48 h period): did not affect | level of intracellular Aβ after 24–48 h of incubation compared to cells treated with Aβ alone ([9]; ELISA): decreased | amount of Aβ oligomers (oligomer-specific ELISA) [10]: reduced the amount of Aβ oligomers | decrease in IL-6 levels in mouse brain tissue [11]: 40% | average size of Aβ oligomers (DLS) [12]: reduced their average size | formation of toxic, zinc-induced Aβ oligomers [13]: blocks | effect on Aβ clearance by the cells at 24–48 h ([14]; clearance rate = difference of Aβ level 48 h vs 24 h divided by 24 h): notably accelerated | effect on intracellular Aβ level at 4–24 h ([14]; medium without FBS, ELISA): did not significantly affect | toxicity [15]: non-toxic | effect on the inhibitory effect of Aβ42 on nicotinic α4β2 acetylcholine receptors [16]: completely abolishes | rate of Aβ passage across the BBB from abluminal to luminal compartment [17]: significantly increased | reduction of intracellular Aβ level, HAEE + GW4869 compared to GW4869 alone [1]: 40%
